Legend:
[1] = target: T1, large hydrophilic loop of PS1 (Homo sapiens, UniProt P49768); assay: co-immunoprecipitation in 293T cells, PS1 loop; type: binding; conditions: immunoprecipitation with anti-TAG, 48 hrs after transfection, PS1-FLAG loop
T1 construct: and a large hydrophilic loop (amino acids 263-407); expressed in transfected cells; host or cells: 293T human kidney cells, pCIS2 expression vector
Description: To confirm the yeast two-hybrid data, the interaction between PBP and PSs was assayed in mammalian cells by immunoprecipitation. Human kidney 293-T cells, and monkey kidney COS-7 cells were cultured in Dulbecco's modified Eagle's medium supplemented with 10% fetal calf serum at 37° C. in a 10% CO2 atmosphere. A nine-amino acid TAG epitope ([…]) (SEQ ID NO:6) was incorporated in-frame at the 3′ end of the PBP cDNA (PBP-TAG), and an eight amino acid FLAG epitope ([…]) (SEQ ID NO:7) was attached in frame at the 5′ end of the large hydrophilic loop of PS1 cDNA and at the 3′ end of full length PS1 cDNA as described previously (Kimura, H., Proc. Natl. Acad. Sci. (USA), 90:2165-2169 (1993)). The resulting fragments were inserted into the pCIS2 expression vector (Genentech, San Francisco, Calif.) for transient or constitutive expression. […]
For immunoprecipitation of the large hydrophilic loop of PSs or Crk with PBP, cells were lysed in RIPA buffer (100 mM NaCl, 0.5% NP-40, 0.5% DOC, 0.1% SDS, 50 mM Tris, pH 7.5, 1 mM PMSF and 1 μg/ml aprotinin, 1 μg/l leupeptin) on ice for 30 min. […] The bound antibodies were detected by the ECL-plus chemiluminescence system (Amersham, Arlington Heights, Ill.).

[2] = test system: B103 (APP695) cells; assay: APP secretion by transfected B103 (APP695) cells, Western blotting; type: cell-based, rat
[3] = test system: HEK293 cells; assay: secretion of endogenous APP751 by HEK293 cells; type: cell-based; conditions: HEK293 cells expressing PBP
Description: Western blotting, metabolic labeling and immunoprecipitation: For western blotting, cells were washed twice with ice-cold PBS and lysed in lysis buffer (1% Triton, 50 mM Hepes pH 7.5, 50 mM NaCl, 5 mM EDTA, 1 mM Na3VO4, 50 mM NaF, 10 mM Na4P2O7, plus a mixture of protease inhibitors (Complete Mini; Roche, Ind., USA). Protein concentrations were determined by Coomassie Plus (Pierce; IL, USA). The same amount of protein from each sample was separated on Novex pre-cast polyacrylamide gels (Invitrogen; CA, USA), and transferred to Immobulin membranes (Millipore; MA, USA). The membranes were blocked with 5% non-fat milk in Tris-buffered saline for 1 hour at room temperature. Following overnight incubation at 4° C. with primary antibodies, the antigens are detected with horseradish peroxidase-conjugated secondary antibodies (Bio-Rad; CA, USA; 1:20,000), an ECL kit (Amersham; NJ, USA), and exposed to films. For pulse-chase experiments, cells were grown to 80% confluency and incubated in methionine-free DMEM for 90 min. […] Protein concentrations were determined and the same amounts of proteins were immunoprecipitated with antibodies at 4° C. overnight 25 μl of anti-mouse IgG agarose (Roche) was then added to each sample and incubated at 4° C. for 2 hours on a rocker platform. […] The gels were dried and subjected to autoradiography and quantitated by NIH image. […]

Q: How did the “interaction with PS1” value [1] turn out when “PBP: novel 2027 amino acid protein, 233 kD, binds presenilins and Crk; expressed from cDNA in cells (KYGVVICSFRGSVPQGLVLEIGETVQILEKCEGWYRGVSTKKPNVKGLFPANYIHLK; listed as Mus musculus)” was run?
A: interacts

Q: What about the “abundance of APP mRNAs” value ([2]; RT-PCR) of the same substance?
A: not altered

Q: What about the “secretion of sAPPβ” value ([2]; antibodies 22C11, GID and 6E10, vs cells without PBP) of the same substance?
A: Less secretion

Q: What about the sAPPα secretion ([2]; co-expression with WT PS1 or FAD PS1 (L392V), relative to PBP alone) of the same substance?
A: further reduced

Q: And the “secretion of β-laminin” value ([2]; specificity control)?
A: no effect

Q: And the “secretion of sAPPα” value ([2]; stable clones vs empty vector, antibody 6E10)?
A: dramatically decreased

Q: What about the APP secretion ([2]; transient transfection, uncloned population) of the same substance?
A: reduction

Q: And the “secretion of endogenous APP751” value [3]?
A: reduced
